What all share (assay): ≥ marks a high value that may be exact or a test limit, other limits are often not marked, values filed in µg/mL are converted to µM
Assay [1] has as its system Escherichia coli BL21.
Assay [2] deals with Pseudomonas aeruginosa PAO1.
In assay [3] the test system is Staphylococcus aureus USA 300.
In assay [4] the test system is Streptococcus pyogenes M1T1 5448.
In assay [5] the test system is Acinetobacter baumannii LMG 01041.
The subject of assay [6] is Escherichia coli LMG 15862.
The subject of assay [7] is Klebsiella aerogenes LMG 02094.
Assay [8] relates to Klebsiella pneumoniae LMG 20218.
Assay [9] deals with Pseudomonas aeruginosa LMG 6395.
In assay [10] the test system is Candida albicans.
Assay [11] has as its system Pseudomonas aeruginosa ATCC 27853.
In assay [12] the test system is Staphylococcus aureus ATCC 49476.
Assay [13] has as its system Staphylococcus aureus MR.
Assay [14] concerns Acinetobacter baumannii.
The test system of assay [15] is Escherichia coli ATCC 25922.
Assay [16] has as its system Klebsiella pneumoniae ATCC 700603.
The subject of assay [17] is Klebsiella pneumoniae.
The test system of assay [18] is Pseudomonas aeruginosa ATCC 9027.
For assay [19], the system named is Staphylococcus aureus ATCC 29737.
Assay [20] relates to Phytophthora nicotianae.
Assay [21] deals with Acinetobacter baumannii ATCC 7978.
Assay [22] concerns Klebsiella pneumoniae WGLW2.
The subject of assay [23] is Pseudomonas aeruginosa PA14.
For assay [24], the system named is Staphylococcus aureus ATCC 29231.
Assay [25] relates to Enterococcus faecium E007.
The subject of assay [26] is Staphylococcus aureus MW2.
The subject of assay [27] is Candida albicans FRR 5580.
Assay [28] concerns Staphylococcus aureus ATCC 25923.
Assay [29] relates to Staphylococcus aureus.
The test system of assay [30] is Acinetobacter baumannii ATCC 19606.
For assay [31], the system named is Enterobacter cloacae ATCC 13047.
In assay [32] the test system is Enterococcus faecium ATCC 19434.
For assay [33], the system named is Escherichia coli BW25113 ΔsbmA.
Assay [34] deals with Escherichia coli BW25113.

Structures are written as SMILES. Values after ≈ are worked out from the molar mass of the structure shown.

We go through nine molecules from DBAASP.

Usually MIC stands for the smallest concentration in the dilution series that meets the test's criterion for growth inhibition. Low values mean inhibition by little substance, high ones a need for much substance.

On to `CC[C@H](C)[C@H](NC(=O)[C@H](CCCN=C(N)N)NC(=O)[C@H](CCCCN)NC(=O)[C@@H](NC(=O)[C@H](CCCCN)NC(=O)[C@H](CCCN=C(N)N)NC(=O)[C@@H](NC(=O)[C@H](Cc1ccc(O)cc1)NC(=O)[C@H](CCCN=C(N)N)NC(=O)[C@H](CCCN=C(N)N)NC(=O)[C@H](CC(C)C)NC(=O)[C@H](CCC(=O)O)NC(=O)[C@H](CCCCN)NC(=O)[C@H](C)NC(=O)[C@@H](NC(=O)[C@H](CCCN=C(N)N)NC(=O)[C@H](CC(N)=O)NC(=O)[C@@H](NC(=O)CNC(=O)[C@H](C)N)[C@@H](C)O)[C@@H](C)CC)[C@@H](C)CC)C(C)C)C(=O)N[C@@H](C)C(=O)N[C@@H](CCCN=C(N)N)C(=O)N[C@@H](CCCCN)C(=O)N[C@@H](C)C(=O)N[C@@H](Cc1c[nH]c2ccccc12)C(=O)O` [AGTNRIAKELRRYIRKVKRIARKAW], for which the MIC came to 0.5 µM (≈ 1.53 µg/mL) in [1], 16 µM (≈ 48.9 µg/mL) in assay [2], 16 µM (≈ 48.9 µg/mL) in assay [3] and 1 µM (≈ 3.05 µg/mL) in assay [4].
For the molecule `CC[C@H](C)[C@H](NC(=O)[C@H](C)N)C(=O)N[C@H](C(=O)N[C@@H](CCC(N)=O)C(=O)N[C@@H](CCCN=C(N)N)C(=O)N[C@H](C(=O)N[C@@H](CCCCN)C(=O)N[C@@H](CCCCN)C(=O)N[C@@H](Cc1c[nH]c2ccccc12)C(=O)N[C@@H](CC(C)C)C(=O)N[C@@H](CCCN=C(N)N)C(N)=O)[C@@H](C)CC)C(C)C` [AIVQRIKKWLR], the MIC in assay [5] was no less than 128 µM; in assay [6], 12 µM (≈ 16.9 µg/mL); in [7], no less than 128 µM; in [8], 24 µM (≈ 33.8 µg/mL); in [9], 16 µM (≈ 22.6 µg/mL).
Consider `CC[C@H](C)[C@H](NC(=O)[C@H](CC(C)C)NC(=O)[C@H](CCCN=C(N)N)NC(=O)[C@H](Cc1cnc[nH]1)NC(=O)[C@H](CCC(=O)O)NC(=O)[C@H](C)NC(=O)[C@H](CCCCN)NC(=O)CNC(=O)[C@H](C)NC(=O)[C@H](CO)NC(=O)[C@H](Cc1ccccc1)NC(=O)[C@H](CC(C)C)NC(=O)CNC(=O)CNC(=O)[C@@H](NC(=O)[C@@H](NC(=O)[C@H](Cc1cnc[nH]1)NC(=O)[C@H](Cc1cnc[nH]1)NC(=O)[C@@H](NC(=O)[C@@H](N)Cc1ccccc1)[C@@H](C)CC)[C@@H](C)CC)[C@@H](C)CC)C(=O)N[C@@H](CCCN=C(N)N)C(=O)N[C@@H](CCCN=C(N)N)C(=O)N[C@@H](CCCN=C(N)N)C(=O)N[C@@H](CCCN=C(N)N)C(=O)N[C@@H](CCCN=C(N)N)C(=O)O` [FIHHIIGGLFSAGKAEHRLIRRRRR], for which the MIC was 42.7 µM (≈ 128 µg/mL) in assay [10], greater than 171 µM in assay [11], no less than 171 µM in assay [12] and no less than 171 µM in assay [13].
Take `CC(C)C[C@H](NC(=O)[C@H](Cc1c[nH]c2ccccc12)NC(=O)[C@@H](NC(=O)[C@H](CC(C)C)NC(=O)[C@@H]1CCCN1C(=O)[C@@H](N)Cc1ccccc1)[C@@H](C)O)C(=O)N[C@@H](CCCCN)C(=O)N[C@@H](Cc1c[nH]c2ccccc12)C(=O)N[C@@H](Cc1c[nH]c2ccccc12)C(=O)N[C@@H](CCCCN)C(=O)N[C@@H](Cc1c[nH]c2ccccc12)C(=O)N[C@@H](CCCCN)C(=O)N[C@@H](CCCCN)C(N)=O` [FPLTWLKWWKWKK]: the MIC in assay [14] was 16.9 µM (≈ 31.2 µg/mL); in [15], 16.9 µM (≈ 31.2 µg/mL); in assay [16], 8.45 µM (≈ 15.6 µg/mL); in assay [17], 8.66 µM (≈ 16 µg/mL); in [18] it was 33.8 µM (≈ 62.5 µg/mL); in [19], 8.45 µM (≈ 15.6 µg/mL).
In assay [20], `CC[C@H](C)[C@H](NC(=O)CN)C(=O)N[C@@H](Cc1ccccc1)C(=O)N[C@@H](CO)C(=O)N[C@@H](CCCCN)C(=O)N[C@@H](CC(C)C)C(=O)N[C@@H](C)C(=O)NCC(=O)N[C@@H](CCCCN)C(=O)N[C@@H](CCCCN)C(=O)N[C@@H](CC(C)C)C(=O)N[C@@H](CCCCN)C(=O)N[C@@H](CC(N)=O)C(=O)N[C@@H](CC(C)C)C(=O)N[C@@H](CC(C)C)C(=O)N[C@H](C(=O)N[C@@H](CO)C(=O)NCC(=O)N[C@@H](CC(C)C)C(N)=O)[C@@H](C)CC` [GIFSKLAGKKLKNLLISGL] had an MIC of 12 µM (≈ 24 µg/mL).
With `CC[C@H](C)[C@H](NC(=O)[C@H](Cc1c[nH]c2ccccc12)NC(=O)[C@H](CCCCN)NC(=O)[C@@H](N)CC(C)C)C(=O)NCC(=O)N[C@@H](CCCCN)C(=O)N[C@@H](CCCCN)C(=O)N[C@H](C(=O)N[C@@H](Cc1c[nH]c2ccccc12)C(=O)N[C@@H](CCCN=C(N)N)C(=O)N[C@H](C(=O)NCC(=O)O)C(C)C)[C@@H](C)CC` [LKWIGKKIWRVG], the MIC in assay [21], in assay [22], in assay [23] and in [24] was no less than 86.3 µM each time.
With `CC[C@H](C)[C@H](NC(=O)[C@H](Cc1c[nH]c2ccccc12)NC(=O)[C@H](CCCCN)NC(=O)[C@@H](N)CC(C)C)C(=O)NCC(=O)N[C@@H](CCCCN)C(=O)N[C@@H](Cc1c[nH]c2ccccc12)C(=O)N[C@H](C(=O)N[C@@H](Cc1c[nH]c2ccccc12)C(=O)N[C@@H](CCCN=C(N)N)C(=O)N[C@H](C(=O)NCC(=O)N[C@@H](Cc1c[nH]c2ccccc12)C(=O)N[C@@H](CC(N)=O)C(=O)N[C@@H](Cc1c[nH]c2ccccc12)C(=O)N[C@@H](CCCN=C(N)N)C(=O)O)C(C)C)[C@@H](C)CC` [LKWIGKWIWRVGWNWR], the minimal inhibitory concentration (MIC) in [21] is no less than 58.6 µM; in assay [25], no less than 58.6 µM; in assay [24] it was no less than 58.6 µM; in [26], 29.3 µM (≈ 64 µg/mL).
`NCCCC[C@H](NC(=O)[C@H](Cc1c[nH]c2ccccc12)NC(=O)[C@H](Cc1c[nH]c2ccccc12)NC(=O)[C@H](CCCCN)NC(=O)[C@H](Cc1c[nH]c2ccccc12)NC(=O)[C@H](Cc1c[nH]c2ccccc12)NC(=O)[C@H](CCCN=C(N)N)NC(=O)[C@H](Cc1c[nH]c2ccccc12)NC(=O)[C@H](Cc1c[nH]c2ccccc12)NC(=O)[C@H](CCCN=C(N)N)NC(=O)[C@H](CCCCN)NC(=O)[C@@H](N)CCCN=C(N)N)C(=O)N[C@@H](CCCN=C(N)N)C(N)=O` [RKRWWRWWKWWKR]: the MIC in assay [27] came out at 29.8 µM (≈ 64 µg/mL); in assay [15] it was 7.46 µM (≈ 16 µg/mL); in assay [18], 7.46 µM (≈ 16 µg/mL); in assay [28] it was 7.46 µM (≈ 16 µg/mL); in assay [29] it was 5.28 µM (≈ 11.3 µg/mL).
On to `CC[C@H](C)[C@H](NC(=O)[C@H](CCCN=C(N)N)NC(=O)[C@@H](N)Cc1c[nH]c2ccccc12)C(=O)N[C@@H](CCCN=C(N)N)C(=O)N[C@@H](CCCN=C(N)N)C(=O)N[C@@H](CCCN=C(N)N)C(=O)N[C@@H](Cc1c[nH]c2ccccc12)C(=O)N1CCC[C@H]1C(=O)N[C@@H](CCCN=C(N)N)C(=O)N[C@@H](CC(C)C)C(=O)N1CCC[C@H]1C(=O)N[C@@H](CCCN=C(N)N)C(=O)N1CCC[C@H]1C(=O)N[C@@H](CCCN=C(N)N)C(=O)N[C@@H](Cc1c[nH]c2ccccc12)C(=O)N[C@@H](CCCN=C(N)N)C(=O)O` [WRIRRRWPRLPRPRWR], for which the MIC in assay [30] was 4 µM (≈ 9.38 µg/mL); in [31] it was 8 µM (≈ 18.8 µg/mL); in [32], no less than 32 µM; in [33] it was 4 µM (≈ 9.38 µg/mL); in assay [34], 2 µM (≈ 4.69 µg/mL); in [16], 2 µM (≈ 4.69 µg/mL). The MIC in assay [11] worked out at 32 µM (≈ 75 µg/mL); in assay [28], 12 µM (≈ 28.1 µg/mL).
